The molecules below were run on HCT116 colon cancer cell line (assay: Cellular proliferation/viability assay (Cell-Titer-Glo), HCT116). Settings: Homo sapiens, HCT-116, 120 h; HCT116, 5 days incubation.
Type: cell-based
Protocol: (§1) Potency of test compounds in inhibiting cellular proliferation and/or cellular viability was estimated using a cellular ATP assay (Cell-Titer-Glo, Promega). Cells (HCT116, HT29 colon cancer cell lines, MCF-7 breast cancer cell line) were seeded in 384-well plates (Greiner μClear) at an appropriate density in 50:50 DMEM/Hams F-12 medium supplemented with 10% fetal calf serum, and allowed to attach overnight. Test compounds were sequentially diluted in DMSO and then culture medium, and added to the cells at appropriate concentrations. Cells were incubated with compound for 5 days. Cell number/viability was estimated using Cell-Titer-Glo reagent (Promega) according to manufacturers instructions.

Row | SMILES | IC50 [nM]
1 | CCN1C(=O)C(C)(C)c2cc(Nc3ncc(Cl)c(Nc4ccccc4NC(=O)/C=C/c4ccccc4)n3)ccc21 [compound 49] | 110

What follows are molecules tested against T1, Aurora A (Homo sapiens, UniProt O14965) (assay: Aurora A in vitro kinase assay (ELISA)). Settings: 30 μM ATP, 45 minutes.
T1 sequence (O14965 1-403): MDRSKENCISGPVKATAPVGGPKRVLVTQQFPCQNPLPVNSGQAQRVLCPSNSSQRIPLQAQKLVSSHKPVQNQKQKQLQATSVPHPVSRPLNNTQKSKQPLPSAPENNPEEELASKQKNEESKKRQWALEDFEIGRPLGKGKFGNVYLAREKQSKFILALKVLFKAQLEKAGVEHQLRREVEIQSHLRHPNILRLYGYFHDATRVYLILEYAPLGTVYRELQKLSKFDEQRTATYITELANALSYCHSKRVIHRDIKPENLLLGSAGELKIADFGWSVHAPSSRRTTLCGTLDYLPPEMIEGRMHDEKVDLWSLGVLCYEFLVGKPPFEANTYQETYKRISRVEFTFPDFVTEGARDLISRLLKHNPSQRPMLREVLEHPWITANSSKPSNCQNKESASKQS
Type: biochemical
Protocol: Kinase activities were measured by Enzyme-Linked Immunosorbent Assay (ELISA): Maxisorp 384-well plates (Nunc) were coated with recombinant fusion protein comprising residues 1-15 of Histone H3 fused to the N-terminus of Glutathione-S-Transferase. Plates were then blocked with a solution of 1 mg/mL I-block (Tropix Inc) in phosphate-buffered saline. Kinase reactions were carried out in the wells of the ELISA plate by combining an appropriate amount of Aur A and B kinases and/or mutants thereof with test compound and 30 μM ATP. The reaction buffer was 1× Kinase Buffer (Cell Signaling Technologies) supplemented with 1 μg/mL I-block. Reactions were stopped after 45 minutes by addition of 25 mM EDTA. After washing, substrate phosphorylation was detected by addition of anti-phospho-Histone H3 (Ser 10) 6G3 mAb (Cell Signaling cat #9706) and sheep anti-mouse pAb-HRP (Amersham cat# NA931V), followed by calorimetric development with TMB.

Row | SMILES | IC50 [nM]
2 | O=C(/C=C/c1ccccc1)Nc1ccccc1Nc1nc(Nc2ccc3c(c2)CC(=O)N3)ncc1Cl [compound 50] | 6
3 | CC(=O)N1CCc2cc(Nc3ncc(Cl)c(Nc4ccccc4C(=O)NC4CC4)n3)ccc21 [compound 44] | 2.1
4 | O=C(Nc1ccccc1Nc1nc(Nc2ccc3c(c2)CS(=O)(=O)C3)ncc1Cl)C1CC1 [compound 58] | 0.6
5 | CC(=O)N1CC(C)(C)c2cc(Nc3ncc(Cl)c(Nc4ccccc4C(=O)NC4CC4)n3)ccc21 [compound 48] | 24.8

Next, values leading:

Row | IC50 [nM] | SMILES
6 | 7.2 | COCCN1C(=O)C(C)(C)c2cc(Nc3ncc(F)c(Nc4ccccc4NC(=O)C4CC4)n3)ccc21 [compound 38]
7 | 10.4 | CN1C(=O)C(C)(C)c2cc(Nc3ncc(F)c(Oc4ccc(C(=O)Nc5ccccn5)cc4)n3)ccc21 [compound 59]
8 | 23.1 | CCN1C(=O)C(C)(C)c2cc(Nc3ncc(F)c(Nc4ccc(C(=O)Nc5ccccn5)cc4)n3)ccc21 [compound 26]
9 | 10.8 | CCN1C(=O)C(C)(C)c2cc(Nc3ncc(F)c(Nc4ccc(C(=O)NC(C)(C)C)cc4)n3)ccc21 [compound 5]

The molecules below were run on HT29 colon cancer cell line (assay: Cellular proliferation/viability assay (Cell-Titer-Glo), HT29). Settings: Homo sapiens, HT-29, 120 h; HT29, 5 days incubation.
Type: cell-based
Protocol: as §1

Row | SMILES | IC50 [nM]
10 | CCN1C(=O)C(C)(C)c2cc(Nc3ncc(Cl)c(Nc4ccccc4NC(=O)/C=C/c4ccccc4)n3)ccc21 [compound 49] | 100

— US20080318989A1, “Pyrimidine Kinase Inhibitors” (priority 2005, published 2008)
